Source: patent publication US10071967B2, “N-cycloalkyl-N-{[2-(1-substitutedcycloalkyl)phenyl]methylene}-(thio)carboxamide derivatives” (BAYER CROPSCIENCE AKTIENGESELLSCHAFT, priority 2013, dated 2018)

Experiment: log P by HPLC on a reversed-phase column (C 18), EEC Directive 79/831 Annex V.A8
Format: physicochemical
Settings: HPLC, reversed-phase column (C 18), 40° C.; 0.1% aqueous formic acid and acetonitrile, linear gradient 10% to 90% acetonitrile
Protocol: In table 1, the log P values were determined in accordance with EEC Directive 79/831 Annex V.A8 by HPLC (High Performance Liquid Chromatography) on a reversed-phase column (C 18), using the method described below: Temperature: 40° C.; Mobile phases: 0.1% aqueous formic acid and acetonitrile; linear gradient from 10% acetonitrile to 90% acetonitrile. Calibration was carried out using unbranched alkan-2-ones (comprising 3 to 16 carbon atoms) with known log P values (determination of the log P values by the retention times using linear interpolation between two successive alkanones). lambda-max-values were determined using UV-spectra from 200 nm to 400 nm and the peak values of the chromatographic signals.

Row | SMILES | logP
1 | C#CC1(c2ccc(Cl)cc2CN(C(=O)c2cn(C)nc2C(F)F)C2CC2)CC1 [Example 1.063] | 3.39
2 | C#CC1(c2ccc(C)cc2CN(C(=O)c2cn(C)nc2C(F)F)C2CC2)CC1 [Example 1.064] | 3.31
3 | C#CC1(c2ccc(C)cc2CN(C(=O)c2c(C)nn(C)c2F)C2CC2)CC1 [Example 1.065] | 3.21
4 | C#CC1(c2ccc(C)cc2CN(C(=S)c2c(C)nn(C)c2F)C2CC2)CC1 [Example 1.066] | 4.54
5 | CCC1(c2ccccc2CN(C(=O)c2cn(C)nc2C(F)F)C2CC2)CC1 [Example 1.067] | 3.79
6 | CCC1(c2ccccc2CN(C(=S)c2cn(C)nc2C(F)F)C2CC2)CC1 [Example 1.068] | 4.37
7 | CCC1(c2cc(Cl)ccc2CN(C(=O)c2c(C)nn(C)c2F)C2CC2)CC1 [Example 1.069] | 4.25
8 | CCC1(c2cc(Cl)ccc2CN(C(=O)c2cn(C)nc2C(F)F)C2CC2)CC1 [Example 1.070] | 4.25
9 | CCC1(c2cc(Cl)ccc2CN(C(=O)c2cc(C)oc2C)C2CC2)CC1 [Example 1.071] | 5.34
10 | CCC1(c2cc(Cl)ccc2CN(C(=O)c2cc(C)oc2C(F)F)C2CC2)CC1 [Example 1.072] | 5.28
11 | CCC1(c2cc(Cl)ccc2CN(C(=O)c2nn(C)nc2C(F)F)C2CC2)CC1 [Example 1.073] | 4.87
12 | CCC1(c2cc(C)ccc2CN(C(=O)c2cn(C)nc2C(F)F)C2CC2)CC1 [Example 1.074] | 4.16
13 | CCC1(c2cc(C)ccc2CN(C(=O)c2c(C)nn(C)c2F)C2CC2)CC1 [Example 1.075] | 4.11
14 | CCC1(c2cc(C)ccc2CN(C(=S)c2cn(C)nc2C(F)F)C2CC2)CC1 [Example 1.076] | 4.67
15 | CCC1(c2cc(C(F)(F)F)ccc2CN(C(=O)c2cn(C)nc2C(F)F)C2CC2)CC1 [Example 1.077] | 4.36
16 | CCC1(c2cc(C)c(F)cc2CN(C(=O)c2c(C)nn(C)c2Cl)C2CC2)CC1 [Example 1.078] | 4.49
17 | CCC1(c2cc(C)c(F)cc2CN(C(=O)c2nn(C)nc2C(F)F)C2CC2)CC1 [Example 1.079] | 4.85
18 | CCC1(c2cc(C)c(F)cc2CN(C(=O)c2cc(C)oc2C(F)F)C2CC2)CC1 [Example 1.080] | 5.25
19 | CCC1(c2cc(C)c(F)cc2CN(C(=O)c2cn(C)nc2C(F)F)C2CC2)CC1 [Example 1.081] | 4.24

Row | SMILES | logP
20 | CCC1(c2cc(C)c(F)cc2CN(C(=O)c2c(C)nn(C)c2F)C2CC2)CC1 [Example 1.082] | 4.26
21 | CCC1(c2cc(C)c(F)cc2CN(C(=O)c2cc(C)oc2C)C2CC2)CC1 [Example 1.083] | 5.34
22 | CCC1(c2ccc(C(F)(F)F)cc2CN(C(=O)c2c(C)nn(C)c2F)C2CC2)CC1 [Example 1.084] | 4.34
23 | CCC1(c2ccc(C(F)(F)F)cc2CN(C(=O)c2cn(C)nc2C(F)F)C2CC2)CC1 [Example 1.085] | 4.27
24 | CCC1(c2ccc(Cl)cc2CN(C(=O)c2cn(C)nc2C(F)F)C2CC2)CC1 [Example 1.086] | 4.18
25 | CCC1(c2ccc(Cl)cc2CN(C(=O)c2c(C)nn(C)c2F)C2CC2)CC1 [Example 1.087] | 4.23
26 | CCC1(c2ccc(Cl)cc2CN(C(=O)c2cc(C)oc2C)C2CC2)CC1 [Example 1.088] | 5.31
27 | CCC1(c2ccc(Cl)cc2CN(C(=O)c2c(OC(F)F)nn(C)c2F)C2CC2)CC1 [Example 1.089] | 4.78
28 | CCC1(c2ccc(Cl)cc2CN(C(=O)c2c(OC(F)F)nn(C)c2Cl)C2CC2)CC1 [Example 1.090] | 5.03
29 | CCC1(c2ccc(Cl)cc2CN(C(=O)c2c(OC(F)F)nn(C)c2C(F)(F)F)C2CC2)CC1 [Example 1.091] | 5.36
30 | CCC1(c2ccc(C)cc2CN(C(=O)c2cn(C)nc2C(F)F)C2CC2)CC1 [Example 1.092] | 4.19
31 | CCC1(c2ccc(C)cc2CN(C(=O)c2c(C)nn(C)c2F)C2CC2)CC1 [Example 1.093] | 4.14
32 | CCC1(c2ccc(C)cc2CN(C(=O)c2nn(C)nc2C(F)F)C2CC2)CC1 [Example 1.094] | 4.77
33 | CCC1(c2ccc(C)cc2CN(C(=O)c2cc(C)oc2C(F)F)C2CC2)CC1 [Example 1.095] | 5.22
34 | CCC1(c2ccc(C)cc2CN(C(=O)c2c(C)nn(C)c2Cl)C2CC2)CC1 [Example 1.096] | 4.36
35 | CCC1(c2ccc(C)cc2CN(C(=O)c2cc(C)oc2C)C2CC2)CC1 [Example 1.097] | 5.14
36 | CCC1(c2ccc(C)cc2CN(C(=O)c2c(OC(F)F)nn(C)c2F)C2CC2)CC1 [Example 1.098] | 4.72
37 | CCC1(c2ccc(C)cc2CN(C(=S)c2cn(C)nc2C(F)F)C2CC2)CC1 [Example 1.099] | 4.69
38 | CCC1(c2ccc(C)cc2CN(C(=O)c2c(OC(F)F)nn(C)c2C(F)(F)F)C2CC2)CC1 [Example 1.100] | 5.35

Row | SMILES | logP
39 | CCC1(c2ccc(C)cc2CN(C(=O)c2c(OC(F)F)nn(C)c2Cl)C2CC2)CC1 [Example 1.101] | 2.84
40 | CCC1(c2cccc(F)c2CN(C(=O)c2cn(C)nc2C(F)F)C2CC2)CC1 [Example 1.102] | 3.74
41 | CCC1(c2cccc(F)c2CN(C(=O)c2c(C)nn(C)c2F)C2CC2)CC1 [Example 1.103] | 3.63
42 | COC1(c2ccccc2CN(C(=O)c2cn(C)nc2C(F)F)C2CC2)CC1 [Example 1.104] | 2.88
43 | Cc1ccc(C2(Cl)CC2)c(CN(C(=O)c2cn(C)nc2C(F)F)C2CC2)c1 [Example 1.105] | 3.51
44 | Cc1ccc(C2(Cl)CC2)c(CN(C(=O)c2c(C)nn(C)c2F)C2CC2)c1 [Example 1.106] | 3.42
45 | Cc1ccc(C2(C3CC3)CC2)c(CN(C(=O)c2cn(C)nc2C(F)F)C2CC2)c1 [Example 1.107] | 4.11
46 | Cc1ccc(C2(C3CC3)CC2)c(CN(C(=O)c2c(C)nn(C)c2F)C2CC2)c1 [Example 1.108] | 4.11
47 | Cc1ccc(C2(C3CC3)CC2)c(CN(C(=O)c2cc(C)oc2C)C2CC2)c1 [Example 1.109] | 5.05
48 | CCCC1(c2cc(Cl)ccc2CN(C(=O)c2cc(C)oc2C(F)F)C2CC2)CC1 [Example 1.111] | 5.78
49 | CCCC1(c2cc(Cl)ccc2CN(C(=O)c2nn(C)nc2C(F)F)C2CC2)CC1 [Example 1.112] | 5.31
50 | CCCC1(c2ccc(C)cc2CN(C(=O)c2cn(C)nc2C(F)F)C2CC2)CC1 [Example 1.114] | 4.59
51 | CCCC1(c2ccc(C)cc2CN(C(=O)c2cc(C)oc2C)C2CC2)CC1 [Example 1.115] | 5.62
52 | CCCC1(c2ccc(C)cc2CN(C(=S)c2cn(C)nc2C(F)F)C2CC2)CC1 [Example 1.116] | 5.08
53 | Cc1ccc(C2(C(C)C)CC2)c(CN(C(=O)c2nn(C)cc2C(F)F)C2CC2)c1 [Example 1.117] | 4.90
54 | Cc1ccc(C2(C(C)C)CC2)c(CN(C(=O)c2cc(C)oc2C)C2CC2)c1 [Example 1.118] | 5.65
55 | Cc1ccc(C2(C(C)C)CC2)c(CN(C(=O)c2c(C)nn(C)c2Cl)C2CC2)c1 [Example 1.119] | 4.80
56 | Cc1ccc(C2(C(C)C)CC2)c(CN(C(=O)c2cc(C)oc2C(F)F)C2CC2)c1 [Example 1.120] | 5.54
57 | Cc1ccc(C2(C(C)C)CC2)c(CN(C(=O)c2nn(C)nc2C(F)F)C2CC2)c1 [Example 1.121] | 5.08
